Data as given in patent US20240118281A1, “ANTICANCER COMPOUNDS AND USES THEREOF” (University of Florida Research Foundation, Incorporated, priority 2021, published 2024).

What was measured:
[1] = tested on: MDA-MB-468 and BT474 cells; test: Immunoblot analysis of treated cells (FIG. 9D); type: cell-based; conditions: 24 h
From the text: The BT20, BT474, BT549, MCF7, MDA-MB-231, MDA-MB-436, MDA-MB-468, HCC1143, HCC1500, HCC1569, HCC1937, HCC1954, Hs578t, and T47D cells lines were purchased from American Type Culture Collection (ATCC) (Manassas, VA). The HCI-001 cell line was derived from an ER-/PR-/HER2- patient-derived xenograft originally isolated from a patient as described previously (DeRose Y S, et al. Nat Med 2011; 17: 1514-1520). The HCI-001/LVM2 model was derived from the HCI-001 cell line by performing two rounds of selection for liver metastasis, as described previously (Wang M, et al. Cell Death Discovery 2019; 5: 153). Cell lines were grown in Dulbecco's Modified Eagle's Medium (GE Healthcare Life Sciences, Logan, UT) containing 10% fetal bovine serum (10% FBS—DMEM) in a humidified incubator with 5% CO2 at 37° C. Cell lysates were prepared as described previously (Law B K, et al. Mol Cell Biol. 2002; 22: 8184-8198). […]

AGR2 = molecular target: T1, AGR2 (Homo sapiens, UniProt O95994); test: DDA-AGR2 binding assay, Streptavidin-Alkaline Phosphatase blot; design: made in house; host or cells: E. coli BL21(DE3), pET-45b(+); conditions: 37° C., non-reducing SDS-PAGE, FIG. 2B
T1 sequence (O95994 21-175): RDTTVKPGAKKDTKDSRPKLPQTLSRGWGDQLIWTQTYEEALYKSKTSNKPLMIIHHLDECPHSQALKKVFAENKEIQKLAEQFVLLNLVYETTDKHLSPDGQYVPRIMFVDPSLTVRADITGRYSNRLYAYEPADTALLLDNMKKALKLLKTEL
Procedure: Competent BL21(DE3) cells were transformed with either the AGR2/pET-45b(+) or AGR2 C81S/pET-45b(+) vectors. Protein expression was induced by the addition of 50 µM Isopropyl β-D-1-thiogalactopyranoside (Fisher Scientific, Fair Lawn, NJ) to bacterial cell cultures for 2.5 hours and shaking at 37° C. Bacterial cells were subsequently pelleted and dissolved in Mouse Tonicity Phosphate Buffered Saline (MTPBS) containing 1% Triton X-100 and sonicated for 20 seconds on ice, followed by centrifugation for 10 min at 4° C. to pellet cell debris. The supernatant was transferred to a new tube, followed by the addition of TALON Resin (Clontech, Mountain View, CA) and mixing on a Nutator for 30 min at 4° C. The TALON Resin was pelleted by centrifugation and washed twice with MTPBS and twice with MTPBS containing 30 mM Imidazole. Protein bound to the TALON Resin was eluted with 400 mM Imidazole and precipitated with 60% saturated ammonium sulfate. The precipitated protein was pelleted by centrifugation, dissolved in MTPBS containing 1 mM DTT and 1 mM EDTA, and subsequently dialyzed against a solution of MTPBS containing 10 μM DTT and 30% Glycerol.
(§1) Purified His6-AGR2 or His6-AGR2 C81S, as prepared above, or His6-AGR2 (PRO-580) or His6-AGR3 (PRO-242) obtained from ProSpec (New Brunswick NJ) were incubated with or without varying concentrations of the unlabeled DDA competitors, tcyDTDO or dMtcyDTDO, and 30 μM Biotin-GlyPyrDTDO or Biotin-PyrDTDO in buffer (20 mM HEPES (pH 7.4), 1 mM EDTA, 1 mM EGTA, 5% Glycerol, 1 nM Microcystin, 1 mM Na3VO4, and 40 mM Na2H2P2O7) containing 1% Triton-X 100 for 30 min at 37° C. […] Therefore, the two probes were used interchangeably. Reactions were stopped by boiling the samples in 2×-SDS-Sample Buffer containing 100 mM NEM for 10 min. Biotin-DDA labeling of protein was verified by blotting with Streptavidin-Alkaline Phosphatase (Rockland Immunochemicals, Inc., Limerick, PA). ERp44 (PRO-547) and PDIA1 (ENZ-262) were obtained from ProSpec and used in experiments examining the binding of these proteins to Biotin-PyrDTDO.

[2] = tested on: proteins in intact cells and purified proteins in vitro; test: Preliminary studies of biotinylated DDA protein labeling
Procedure: as §1

AGR3 = molecular target: T2, AGR3 (Homo sapiens, UniProt Q8TD06); test: DDA binding assay with AGR3; conditions: FIG. 2D
T2 construct: His6 (N); purchased ProSpec PRO-242
T2 sequence (Q8TD06 22-166): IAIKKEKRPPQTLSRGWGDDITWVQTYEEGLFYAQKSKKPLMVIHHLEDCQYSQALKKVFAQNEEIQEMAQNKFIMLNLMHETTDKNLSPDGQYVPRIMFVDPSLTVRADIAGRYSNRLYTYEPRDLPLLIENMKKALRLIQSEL
Procedure: as §1

C81S AGR2 mutant = molecular target: T3, C81S AGR2 mutant (Homo sapiens, UniProt O95994, C81S); test: DDA-AGR2 binding assay, C81S mutant; conditions: FIG. 2D
T3 construct: made in house; host or cells: E. coli BL21(DE3), pET-45b(+)
T3 sequence (O95994 21-175 C81S): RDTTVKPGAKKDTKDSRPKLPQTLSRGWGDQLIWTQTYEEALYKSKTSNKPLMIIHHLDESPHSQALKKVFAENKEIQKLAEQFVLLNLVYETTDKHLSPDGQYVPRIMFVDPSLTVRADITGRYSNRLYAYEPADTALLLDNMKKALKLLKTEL
Procedure: Total RNA from BT474 cells was extracted with TRIzol Reagent (Invitrogen, Waltham, MA) according to the manufacturer's protocol. Total cellular RNA was used to synthesize first-strand cDNA by using the PCR conditions listed: 25° C. for 10 min, 42° C. for 30 min, and 95° C. for 5 min. PCR was subsequently performed using the following AGR2 primers: 5′-[…]-3′ and 5′-[…]-3′. The PCR fragment encoding AGR2 was subsequently digested with BamHI and SnaBI and cloned into the 5′ BamHI and 3′ SnaBI sites of pMXs-IRES-Blasticidin. The AGR2/pMXs-IRES-Blasticidin vector was used as a template for PCR reactions using the following AGR2 primers to amplify the DNA sequence downstream of the AGR2 signal sequence and to add 5′-BamHI and 3′-SalI sites: 5′-[…]-3′ and 5′-[…]-3′. The PCR fragment was digested with BamHI and SalI and cloned into the 5′ BamHI and 3′ SalI sites of pET-45b(+) (Novagen Burlington, MA). QuikChange mutagenesis was performed to produce the C81S mutation of AGR2 using the follow primers: 5′- […]-3′ and 5′-[…]-3′. The C81S mutation of AGR2 was verified by sequencing.
Competent BL21(DE3) cells were transformed with either the AGR2/pET-45b(+) or AGR2 C81S/pET-45b(+) vectors. Protein expression was induced by the addition of 50 µM Isopropyl β-D-1-thiogalactopyranoside (Fisher Scientific, Fair Lawn, NJ) to bacterial cell cultures for 2.5 hours and shaking at 37° C. […]

[3] = tested on: HCI-001/LVM2 breast tumors and associated liver metastases; test: HCI-001/LVM2 breast tumor liver metastasis study, H&E staining of livers; type: in vivo, mice; conditions: 20 mg/kg oral gavage once daily, four consecutive days; necrosis not observed in vehicle treated tumors
Procedure: Breast cancer liver metastasis was initiated in NOD-SCID-gamma (NSG) mice obtained from Jackson Laboratories (Bar Harbor, ME) by injecting 1×10^6 cancer cells into the #4 mammary fat pads as described previously (Wang M, et al. Cell Death Discovery 2019; 5: 153). Mice bearing HCI-001/LVM2 breast tumors were treated once daily for four consecutive days with 20 mg/kg tcyDTDO by oral gavage and livers were collected. Animals bearing HER2+ BT474 tumors were treated with the vehicle or 20 mg/kg dMtcyDTDO or dFtcyDTDO by intraperitoneal injection for four consecutive days. Tissue samples fixed in 4% paraformaldehyde/PBS and paraffin-embedded were sectioned and stained with hematoxylin and eosin (H&E) by the University of Florida Molecular Pathology Core (https://molecular.pathology.ufl.edu/).

CC(C)(C)OC(=O)N1C[C@@H]2CS(=O)(=O)SC[C@H]2C1 (racemic) [(±)-BocPyrDTDO, tert-Butyl-(4aS,7aS)- and (4aR,7aR)-tetrahydro-1H-[1,2]dithiino[4,5-e]pyrrole-6(4H)-carboxylate 2,2-dioxide]
Biological activity and potency compared with DTDO [1]: biologically active and showed a potency similar to DTDO

O=C(CCCC[C@@H]1SC[C@@H]2NC(=O)N[C@@H]21)NCC(=O)N1C[C@@H]2CS(=O)(=O)SC[C@H]2C1 (racemic) [Biotin-GlyPyrDTDO, N-(2-((4aS,7aS)- and (4aR,7aR)-2,2-Dioxidotetrahydro-1H-[1,2]dithiino[4,5-c]pyrrol-6(4H)-yl)-2-oxoethyl)-5-((3aS,4S,6aR)-2-oxohexahydro-1H-thieno[3,4-d]imidazol-4-yl)pentanamide]
Labeling of AGR2 by biotinylated DDA (AGR2): labeled AGR2 in a concentration-dependent manner | Labeling of proteins, comparison of the two biotinylated probes [2]: indistinguishable labeling of proteins in intact cells and purified proteins in vitro | Labeling of AGR3 by biotinylated DDA (AGR3): also labeled | Labeling of C81S AGR2 mutant by biotinylated DDA (C81S AGR2 mutant): not labeled

O=S1(=O)CC2CCCCC2CS1 (stereo not drawn) [tcyDTDO]
Liver metastases, H&E histology [3]: exhibited central necrosis
